How the values were obtained:
Type in all cases: cell-based
[1] = system: T-Rex 293 cells lacking increased expression of estrogen receptor alpha protein; test: Cellular growth inhibition assay, T-Rex 293 cells, (−) doxycycline; details: T-REx-293, 72 h, Table 7-A; T-Rex 293 cells without doxycycline (lacking increased ERα expression); 72 hours; CellTiter-Glo; read-out: (−) Dox GI50
Outline: (§1)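 ERα overexpression was switched on by 3 ng/mL doxycycline in a stably transfected T-Rex 293 clone, while uninduced cells served as the comparison line. Proliferation over 72 h of compound treatment was assessed by ATP luminescence, and GI50 values came from four-parameter curves.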

[2] = system: MCF7 cells (ATCC #HTB-22); test: Cellular growth inhibition assay, MCF7 cells purchased from ATCC; details: Homo sapiens, MCF7, 144 h, Table 8-A; MCF7 cells purchased from ATCC; six days; CellTiter-Glo; read-out: GI50
Outline: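 MCF7 cells in RPMI 1640 with 10% FBS and 0.2 U/ml insulin, seeded at 1,500 cells/well (ATCC) or 225 cells/well (ECACC). Compounds added 24 h later, then 6 days at 37° C. Viability by CellTiter-Glo 2.0 luminescence. GI50 from four-parameter fit.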

[3] = system: T-Rex 293 cells having increased expression of estrogen receptor alpha protein; test: Cellular growth inhibition assay, T-Rex 293 cells, (+) doxycycline; details: T-REx-293, 72 h, Table 7-A; T-Rex 293 cells with doxycycline (increased ERα expression); 72 hours; CellTiter-Glo; read-out: (+) Dox GI50
Outline: as §1

Compound	GI50 [2] [nM]	GI50 [1] [nM]	GI50 [3] [nM]
Cc1sc2c(c1C)C(c1ccc(N3CC(CN4CCC(c5ccc([C@@H]6c7ccc(O)cc7CC[C@@H]6c6ccccc6)cc5)CC4)C3)cc1)=N[C@@H](C)c1nnc(C)n1-2 [III-148]	< 50	500 to 2500	< 50
Cc1sc2c(c1C)C(c1ccc(N3CCC(C#N)(CN4CCN(c5ccc([C@@H]6c7ccc(O)cc7CC[C@@H]6c6ccccc6)cc5)CC4)CC3)cc1)=N[C@@H](C)c1nnc(C)n1-2 [III-150]	50 to 500	500 to 2500	< 50
Cc1sc2c(c1C)C(c1ccc(N3CC(CC4CCN(CC5(F)CN(c6ccc([C@@H]7c8ccc(O)cc8CC[C@@H]7c7ccccc7)cc6)C5)CC4)C3)cc1)=N[C@@H](C)c1nnc(C)n1-2 [III-151]	< 50	> 2500	< 50
Cc1sc2c(c1C)C(c1ccc(N3CCC(O)(CC4CCN(c5ccc([C@@H]6c7ccc(O)cc7CC[C@@H]6c6ccccc6)cc5)CC4)CC3)cc1)=N[C@@H](C)c1nnc(C)n1-2 [III-152]	50 to 500	500 to 2500	< 50
Cc1sc2c(c1C)C(c1ccc(N3CCC(CC4(O)CCN(c5ccc([C@@H]6c7ccc(O)cc7CC[C@@H]6c6ccccc6)cc5)CC4)CC3)cc1)=N[C@@H](C)c1nnc(C)n1-2 [III-153]	50 to 500	500 to 2500	< 50
Cc1sc2c(c1C)C(c1ccc(N3CCC(O)(CC4CCN(c5ccc([C@@H]6c7ccc(O)cc7CC[C@@H]6c6ccccc6)cc5)CC4)CC3)cc1)=N[C@H](Cc1ncco1)c1nnc(C)n1-2 [III-154]	50 to 500	> 2500	> 2500
Cc1sc2c(c1C)C(c1ccc(N3CCC(O)(CC4CCN(c5ccc([C@@H]6c7ccc(O)cc7CC[C@@H]6c6ccccc6)cc5)CC4)CC3)cc1)=N[C@@H](Cc1ncco1)c1nnc(C)n1-2 [III-155]	< 50	50 to 500	< 50
Cc1sc2c(c1C)C(c1ccc(N3CC(F)(CN4CCC(CC5CN(c6ccc([C@@H]7c8ccc(O)cc8CC[C@@H]7c7ccccc7)cc6)C5)CC4)C3)cc1)=N[C@@H](C)c1nnc(C)n1-2 [III-157]	50 to 500	500 to 2500	< 50
Cc1sc2c(c1C)C(c1ccc(N3CC(CC4(O)CCN(c5ccc([C@@H]6c7ccc(O)cc7CC[C@@H]6c6ccccc6)cc5)CC4)C3)cc1)=N[C@@H](C)c1nnc(C)n1-2 [III-158]	< 50	50 to 500	< 50
Cc1sc2c(c1C)C(c1ccc(N3CC(O)(CC4CCN(c5ccc([C@@H]6c7ccc(O)cc7CC[C@@H]6c6ccccc6)cc5)CC4)C3)cc1)=N[C@@H](C)c1nnc(C)n1-2 [III-159]	< 50	< 50	< 50
Cc1sc2c(c1C)C(c1ccc(N3CC(CN4CCN(C(=O)C5CN(c6ccc([C@@H]7c8ccc(O)cc8CC[C@@H]7c7ccccc7)cc6)C5)CC4)C3)cc1)=N[C@@H](C)c1nnc(C)n1-2 [III-160]	< 50	50 to 500	< 50
Cc1sc2c(c1C)C(c1ccc(N3CC4(CCN(CC5CCN(c6ccc([C@@H]7c8ccc(O)cc8CC[C@@H]7c7ccccc7)cc6)CC5)CC4)C3)cc1)=N[C@@H](Cc1ncco1)c1nnc(C)n1-2 [III-161]	< 50	50 to 500	< 50
Cc1sc2c(c1C)C(c1ccc(N3CC(CN4CCN(CC5CN(c6ccc([C@@H]7c8ccc(O)cc8CC[C@@H]7c7ccccc7)cc6)C5)CC4)C3)cc1)=N[C@@H](Cc1ncco1)c1nnc(C)n1-2 [III-162]	< 50	50 to 500	< 50
Cc1sc2c(c1C)C(c1ccc(N3CC(C(=O)N4CCN(CC5CN(c6ccc([C@@H]7c8ccc(O)cc8CC[C@@H]7c7ccccc7)cc6)C5)CC4)C3)cc1)=N[C@@H](C)c1nnc(C)n1-2 [III-165]	< 50	50 to 500	< 50
Cc1sc2c(c1C)C(c1ccc(N3CC(CN4CCN(CC5(O)CN(c6ccc([C@@H]7c8ccc(O)cc8CC[C@@H]7c7ccccc7)cc6)C5)CC4)C3)cc1)=N[C@@H](C)c1nnc(C)n1-2 [III-166]	50 to 500	50 to 500	< 50
Cc1sc2c(c1C)C(c1ccc(C3CN(CC4(O)CCN(C(=O)C5CN(c6ccc([C@@H]7c8ccc(O)cc8CC[C@@H]7c7ccccc7)cc6)C5)CC4)C3)cc1)=N[C@@H](C)c1nnc(C)n1-2 [III-171]	50 to 500	50 to 500	< 50
Cc1sc2c(c1C)C(c1ccc(N3CC(CN4CCC(O)(CN5CC(c6ccc([C@@H]7c8ccc(O)cc8CC[C@@H]7c7ccccc7)cc6)C5)CC4)C3)cc1)=N[C@@H](C)c1nnc(C)n1-2 [III-177]	50 to 500	50 to 500	< 50

Further lines, with some results ahead:

GI50 [2] [nM]	Compound	GI50 [1] [nM]	GI50 [3] [nM]
< 50	Cc1sc2c(c1C)C(c1ccc(N3CCC(C(=O)N4CCN(c5ccc([C@@H]6c7ccc(O)cc7CC[C@@H]6c6ccccc6)cc5)CC4)CC3)cc1)=N[C@@H](Cc1ncco1)c1nnc(C)n1-2 [III-149]	50 to 500	< 50
< 50	Cc1sc2c(c1C)C(c1ccc(C3CN(C(=O)C4CCN(c5ccc([C@@H]6c7ccc(O)cc7CC[C@@H]6c6ccccc6)cc5)CC4)C3)cc1)=N[C@@H](Cc1ncco1)c1nnc(C)n1-2 [III-156]	< 50	< 50
50 to 500	Cc1sc2c(c1C)C(c1ccc(N3CCC(CC4(O)CCN(c5ccc([C@@H]6c7ccc(O)cc7CC[C@@H]6c6ccccc6)cc5)CC4)CC3)cc1)=N[C@H](Cc1ncco1)c1nnc(C)n1-2 [III-163]	> 2500	> 2500
< 50	Cc1sc2c(c1C)C(c1ccc(N3CCC(CC4(O)CCN(c5ccc([C@@H]6c7ccc(O)cc7CC[C@@H]6c6ccccc6)cc5)CC4)CC3)cc1)=N[C@@H](Cc1ncco1)c1nnc(C)n1-2 [III-164]	50 to 500	< 50
< 50	CC1=C(C)C2C(c3ccc(N4CC(O)(CC5CCN(c6ccc([C@@H]7c8ccc(O)cc8CC[C@@H]7c7ccccc7)cc6)CC5)C4)cc3)=N[C@@H](Cc3ncco3)c3nnc(C)n3C2S1 (stereo partly drawn) [III-167]	50 to 500	< 50
< 50	Cc1sc2c(c1C)C(c1ccc(N3CC(C(=O)N4CCN(CC5CN(c6ccc([C@@H]7c8ccc(O)cc8CC[C@@H]7c7ccccc7)cc6)C5)CC4)C3)cc1)=N[C@@H](Cc1ncco1)c1nnc(C)n1-2 [III-168]	50 to 500	< 50
50 to 500	Cc1sc2c(c1C)C(c1ccc(C3CN(CC4(O)CCN(CC5CN(c6ccc([C@@H]7c8ccc(O)cc8CC[C@@H]7c7ccccc7)cc6)C5)CC4)C3)cc1)=N[C@@H](Cc1ncco1)c1nnc(C)n1-2 [III-169]	50 to 500	< 50
50 to 500	Cc1sc2c(c1C)C(c1ccc(N3CCC(C(=O)N4CC(c5ccc([C@@H]6c7ccc(O)cc7CC[C@@H]6c6ccccc6)cc5)C4)CC3)cc1)=N[C@@H](C)c1nnc(C)n1-2 [III-170]	50 to 500	< 50
50 to 500	Cc1sc2c(c1C)C(c1ccc(C3CN(C(=O)C4CCN(CC5CN(c6ccc([C@@H]7c8ccc(O)cc8CC[C@@H]7c7ccccc7)cc6)C5)CC4)C3)cc1)=N[C@@H](C)c1nnc(C)n1-2 [III-172]	50 to 500	< 50
< 50	Cc1sc2c(c1C)C(c1ccc(N3CC(CN4CCC(C(=O)N5CC(c6ccc([C@@H]7c8ccc(O)cc8CC[C@@H]7c7ccccc7)cc6)C5)CC4)C3)cc1)=N[C@@H](C)c1nnc(C)n1-2 [III-173]	50 to 500	< 50
< 50	CC1=C(C)C2C(c3ccc(N4CCC(C(=O)N5CC(c6ccc([C@@H]7c8ccc(O)cc8CC[C@@H]7c7ccccc7)cc6)C5)CC4)cc3)N[C@@H](Cc3ncco3)c3nnc(C)n3C2S1 (stereo partly drawn) [III-174]	50 to 500	< 50
< 50	Cc1sc2c(c1C)C(c1ccc(C3CN(C(=O)C4CCN(CC5CN(c6ccc([C@@H]7c8ccc(O)cc8CC[C@@H]7c7ccccc7)cc6)C5)CC4)C3)cc1)=N[C@@H](Cc1ncco1)c1nnc(C)n1-2 [III-175]	50 to 500	< 50
< 50	Cc1sc2c(c1C)C(c1ccc(N3CC(CN4CCC(C(=O)N5CC(c6ccc([C@@H]7c8ccc(O)cc8CC[C@@H]7c7ccccc7)cc6)C5)CC4)C3)cc1)=N[C@@H](Cc1ncco1)c1nnc(C)n1-2 [III-176]	50 to 500	< 50
< 50	Cc1sc2c(c1C)C(c1ccc(N3CC(CC4(O)CCN(c5ccc([C@@H]6c7ccc(O)cc7CC[C@@H]6c6ccccc6)cc5)CC4)C3)cc1)=N[C@@H](Cc1ncco1)c1nnc(C)n1-2 [III-178]	50 to 500	< 50
< 50	Cc1sc2c(c1C)C(c1ccc(N3CC(CN4CCN(C(=O)C5CN(c6ccc([C@@H]7c8ccc(O)cc8CC[C@@H]7c7ccccc7)cc6)C5)CC4)C3)cc1)=N[C@@H](Cc1ncco1)c1nnc(C)n1-2 [III-179]	< 50	< 50
< 50	Cc1sc2c(c1C)C(c1ccc(N3CC(CN4CCC(O)(CN5CC(c6ccc([C@@H]7c8ccc(O)cc8CC[C@@H]7c7ccccc7)cc6)C5)CC4)C3)cc1)=N[C@@H](Cc1ncco1)c1nnc(C)n1-2 [III-180]	50 to 500	< 50
